The values that follow are results of earlier work, collected in patent publication US8697106B2, “Coating composition” (SurModics, Inc., priority 2006, dated 2014).

For data set [1] the following is noted: system-wide (systemic) concentration.
Data set [2] deals with bacteria. To be noted: effective systemic concentration.

As to `NC[C@H]1O[C@H](O[C@H]2[C@H](O)[C@@H](O[C@H]3O[C@H](CO)[C@@H](O)[C@H](N)[C@H]3O)[C@H](N)C[C@@H]2N)[C@H](N)C[C@@H]1O` [tobramycin], the system-wide toxic concentration result in data set [1] is given as “about 400 mcg/ml”. For the same compound, in data set [2], the “effective concentration to actively control bacteria” value was no more than 4 µg/mL.
